In PMC9299988, “Substrate‐Inspired Fragment Merging and Growing Affords Efficacious LasB Inhibitors” (Angewandte Chemie (International Ed. in English), 2021):
Where two headings read alike, the source gives them in different places.

Columns and labels:
LasB [1] = biological target: T1, LasB (Pseudomonas aeruginosa, UniProt Q02RJ6); assay: biochemical; format: biochemical
T1 construct: The purification of LasB from P. aeruginosa P14 supernatant and the; made in house; host or cells: P. aeruginosa PA14 (native producer), culture supernatant
T1 sequence (Q02RJ6 198-498): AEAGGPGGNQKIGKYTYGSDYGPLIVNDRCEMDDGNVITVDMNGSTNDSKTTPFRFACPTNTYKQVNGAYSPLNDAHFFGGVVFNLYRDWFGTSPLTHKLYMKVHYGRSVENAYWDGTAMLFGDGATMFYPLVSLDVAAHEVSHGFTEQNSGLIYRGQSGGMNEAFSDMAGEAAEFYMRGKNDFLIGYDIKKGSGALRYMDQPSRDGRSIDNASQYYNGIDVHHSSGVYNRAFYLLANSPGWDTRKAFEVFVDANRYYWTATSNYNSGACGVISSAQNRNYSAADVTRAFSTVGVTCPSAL
Protocol: LasB Inhibition Assay. […]
(§1) Preparation of P. aeruginosa supernatant and LasB activity evaluation. A culture of a single colony of PA14 was grown in lysogeny broth medium at 28 °C with constant shaking at 130 rpm for 3 days. Then, the culture was centrifuged at 4 °C, 5000 rpm for 30 minutes. Finally, the supernatant was passed through a membrane filter of […] to sterilize it. The supernatant

P. aeruginosa PA14 = assay: Minimum inhibitory concentration (MIC) assay; format: cell-based, Pseudomonas aeruginosa
MMP-1 = biological target: T2, MMP-1 (Homo sapiens, UniProt P03956); assay: Inhibition assay with human off-target MMP-1; format: biochemical; settings: Table S2; concentration not given
T2 sequence (P03956 100-469): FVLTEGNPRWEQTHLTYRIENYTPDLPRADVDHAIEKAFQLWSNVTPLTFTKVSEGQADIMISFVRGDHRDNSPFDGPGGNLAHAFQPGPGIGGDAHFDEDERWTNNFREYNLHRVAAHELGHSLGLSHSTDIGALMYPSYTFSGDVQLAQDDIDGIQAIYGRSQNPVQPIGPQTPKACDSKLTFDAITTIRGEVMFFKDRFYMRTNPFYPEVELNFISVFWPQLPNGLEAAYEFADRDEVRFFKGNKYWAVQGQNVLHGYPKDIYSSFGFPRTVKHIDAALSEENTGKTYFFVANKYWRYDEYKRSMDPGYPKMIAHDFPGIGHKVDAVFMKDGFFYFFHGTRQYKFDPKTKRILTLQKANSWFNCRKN

MMP-2 = biological target: T3, MMP-2 (Homo sapiens, UniProt P08253); assay: Inhibition assay with human off-target MMP-2; format: biochemical; settings: Table S2; concentration not given
T3 sequence (P08253 110-660): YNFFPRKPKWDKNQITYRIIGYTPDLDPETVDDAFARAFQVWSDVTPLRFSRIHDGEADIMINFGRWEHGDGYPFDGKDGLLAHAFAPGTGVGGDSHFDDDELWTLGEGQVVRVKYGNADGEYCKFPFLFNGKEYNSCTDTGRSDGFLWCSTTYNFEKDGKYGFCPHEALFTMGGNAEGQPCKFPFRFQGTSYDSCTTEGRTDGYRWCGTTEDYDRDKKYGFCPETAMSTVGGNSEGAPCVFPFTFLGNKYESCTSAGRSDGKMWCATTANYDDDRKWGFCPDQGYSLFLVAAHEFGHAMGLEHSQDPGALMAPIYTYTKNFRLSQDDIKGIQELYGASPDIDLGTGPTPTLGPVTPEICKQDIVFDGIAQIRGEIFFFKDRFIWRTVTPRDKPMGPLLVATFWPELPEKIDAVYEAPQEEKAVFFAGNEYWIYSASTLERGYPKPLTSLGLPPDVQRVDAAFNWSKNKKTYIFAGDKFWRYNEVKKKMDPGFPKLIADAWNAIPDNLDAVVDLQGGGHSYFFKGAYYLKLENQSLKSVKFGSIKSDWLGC

MMP-3 = MMP-3 (Homo sapiens, UniProt P08254); assay: Inhibition assay with human off-target MMP-3; format: biochemical; settings: Table S2; concentration not given
Chain of MMP-3 (P08254 100-477): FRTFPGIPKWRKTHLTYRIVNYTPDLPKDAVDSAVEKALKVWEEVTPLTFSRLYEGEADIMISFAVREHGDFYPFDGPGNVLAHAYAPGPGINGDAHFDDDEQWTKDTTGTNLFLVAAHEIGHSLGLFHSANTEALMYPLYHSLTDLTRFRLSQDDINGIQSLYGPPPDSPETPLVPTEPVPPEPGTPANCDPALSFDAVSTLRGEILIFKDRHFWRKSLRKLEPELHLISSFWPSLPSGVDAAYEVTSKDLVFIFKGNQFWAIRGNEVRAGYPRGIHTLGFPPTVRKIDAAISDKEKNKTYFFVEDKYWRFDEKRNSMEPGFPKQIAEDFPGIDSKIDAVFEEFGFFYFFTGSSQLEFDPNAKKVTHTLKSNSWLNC

MMP-7 = biological target: T4, MMP-7 (Homo sapiens, UniProt P09237); assay: Inhibition assay with human off-target MMP-7; format: biochemical; settings: Table S2; concentration not given
T4 sequence (P09237 95-267): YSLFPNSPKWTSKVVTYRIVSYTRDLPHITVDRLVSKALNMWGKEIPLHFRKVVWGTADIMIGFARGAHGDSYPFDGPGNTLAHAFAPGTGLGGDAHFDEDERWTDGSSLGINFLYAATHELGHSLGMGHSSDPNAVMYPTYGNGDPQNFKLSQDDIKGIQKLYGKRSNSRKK

MMP-8 = MMP-8 (Homo sapiens, UniProt P22894); assay: Inhibition assay with human off-target MMP-8; format: biochemical; settings: Table S2; concentration not given
Chain of MMP-8 (P22894 101-467): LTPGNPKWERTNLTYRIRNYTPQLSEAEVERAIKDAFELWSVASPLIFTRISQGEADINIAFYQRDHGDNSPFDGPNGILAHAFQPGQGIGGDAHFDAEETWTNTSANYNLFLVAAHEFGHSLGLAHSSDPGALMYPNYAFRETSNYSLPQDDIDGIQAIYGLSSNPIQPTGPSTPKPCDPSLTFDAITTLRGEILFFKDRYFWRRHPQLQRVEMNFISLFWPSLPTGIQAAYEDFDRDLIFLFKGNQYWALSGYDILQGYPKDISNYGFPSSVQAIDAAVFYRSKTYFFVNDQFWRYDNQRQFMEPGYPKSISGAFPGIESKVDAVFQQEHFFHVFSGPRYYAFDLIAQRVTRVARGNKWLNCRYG

MMP-14 = MMP-14 (Homo sapiens, UniProt P50281); assay: Inhibition assay with human off-target MMP-14; format: biochemical; settings: Table S2; concentration not given
HDAC-3 = HDAC-3 (Homo sapiens, UniProt O15379); assay: Inhibition assay with human off-target HDAC-3; format: biochemical; settings: Table S2
Chain of HDAC-3 (O15379 whole entry): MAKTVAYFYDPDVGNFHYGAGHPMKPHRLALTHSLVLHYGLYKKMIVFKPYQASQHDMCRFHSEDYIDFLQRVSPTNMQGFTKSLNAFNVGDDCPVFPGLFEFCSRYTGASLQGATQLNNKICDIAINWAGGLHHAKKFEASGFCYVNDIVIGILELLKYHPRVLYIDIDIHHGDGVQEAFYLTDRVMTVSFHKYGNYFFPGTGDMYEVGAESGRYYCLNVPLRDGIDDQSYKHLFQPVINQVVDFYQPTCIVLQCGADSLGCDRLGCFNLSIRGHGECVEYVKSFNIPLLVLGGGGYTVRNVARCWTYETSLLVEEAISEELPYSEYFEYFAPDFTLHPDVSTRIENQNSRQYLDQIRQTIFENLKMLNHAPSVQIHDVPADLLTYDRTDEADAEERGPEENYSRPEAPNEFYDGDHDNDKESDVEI
Chain of HDAC-3 (Q9Y618 395-489 partner limits assumed): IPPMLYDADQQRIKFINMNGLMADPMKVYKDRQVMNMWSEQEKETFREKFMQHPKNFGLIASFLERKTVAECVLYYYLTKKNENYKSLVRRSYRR

HDAC-8 = biological target: T5, HDAC-8 (Homo sapiens, UniProt Q9BY41); assay: Inhibition assay with human off-target HDAC-8; format: biochemical; settings: Table S2
T5 sequence (Q9BY41 1-377): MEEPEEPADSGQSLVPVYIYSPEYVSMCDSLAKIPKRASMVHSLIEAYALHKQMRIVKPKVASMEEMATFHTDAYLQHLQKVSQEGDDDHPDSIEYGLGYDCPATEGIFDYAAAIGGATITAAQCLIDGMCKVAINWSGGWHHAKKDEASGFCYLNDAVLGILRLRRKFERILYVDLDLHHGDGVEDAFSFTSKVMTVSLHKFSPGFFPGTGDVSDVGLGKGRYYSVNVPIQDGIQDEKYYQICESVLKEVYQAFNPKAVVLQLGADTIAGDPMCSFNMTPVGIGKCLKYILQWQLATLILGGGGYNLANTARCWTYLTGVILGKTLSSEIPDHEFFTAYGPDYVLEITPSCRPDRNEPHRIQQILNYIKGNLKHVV

Cytotoxicity assay, A549 = settings: human, A549 cells
[2] = Cytotoxicity assay, HepG2; settings: human, HepG2 cells
[3] = Cytotoxicity assay, HEK 293; settings: human, HEK 293 cells
ADAM17 = ADAM17 (Homo sapiens, UniProt P78536); assay: Inhibition assay with human off-target ADAM17 (TACE); format: biochemical
Chain of ADAM17 (P78536 215-824): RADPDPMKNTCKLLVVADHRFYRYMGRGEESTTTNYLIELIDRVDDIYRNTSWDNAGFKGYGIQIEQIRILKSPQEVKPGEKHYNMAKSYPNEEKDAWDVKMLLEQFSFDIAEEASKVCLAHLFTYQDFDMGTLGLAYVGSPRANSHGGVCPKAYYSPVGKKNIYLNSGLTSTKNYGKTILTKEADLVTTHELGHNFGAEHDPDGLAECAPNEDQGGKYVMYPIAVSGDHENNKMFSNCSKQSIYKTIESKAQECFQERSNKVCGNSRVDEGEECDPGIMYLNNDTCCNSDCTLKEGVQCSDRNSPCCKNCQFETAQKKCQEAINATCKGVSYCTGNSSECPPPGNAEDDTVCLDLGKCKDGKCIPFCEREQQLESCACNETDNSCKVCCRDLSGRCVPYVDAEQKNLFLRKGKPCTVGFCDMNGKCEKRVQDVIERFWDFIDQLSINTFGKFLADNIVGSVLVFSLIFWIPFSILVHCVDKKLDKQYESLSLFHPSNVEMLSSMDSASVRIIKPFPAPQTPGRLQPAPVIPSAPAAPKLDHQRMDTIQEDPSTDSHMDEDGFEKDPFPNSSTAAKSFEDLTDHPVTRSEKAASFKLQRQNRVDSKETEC

[4] = test system: Galleria mellonella larvae; assay: Galleria mellonella larvae survival model with P. aeruginosa PA14 supernatant; format: in vivo; settings: for survival of larvae: 0.25 nmol compound injected with PA14 supernatant, three days of incubation, compared to PBS injected larvae; for survival of larvae, compound in PBS: compound in PBS without PA14 supernatant
Protocol: We next analyzed the antivirulence activity of LasB inhibitors in vivo, using a simple model based on G. mellonella larvae. […] We injected the larvae with the supernatant (s.n.) of P. aeruginosa PA14 with or without 0.25 nmol of either 4 or 7 g, incubated them for three days and recorded the survival once per day (Figure 3). […] Treatment of larvae with 0.25 nmol of compound 7 g increased survival up to 60% compared to PBS injected larvae.
PA14 s.n. was also present during compound treatment. PBS served as a negative control (dot dash). […]
as §1

LasB [5] = biological target: T1, LasB; assay: Calculation of Ligand Efficiency (LE) and Lipophilic Ligand Efficiency (LLE); settings: calculated
Excerpt: Although structure‐guided exploration of the N‐aryl ring substitution provided us with a strong starting point for lead optimization, systematic variation of the substituent in the α‐position (R^1) should be considered to exploit the lipophilicity of the S2′ pocket. In addition, compound 7 g only occupies a small fraction (approx. 24%) of the total predicted binding pocket volume, leaving the S2′ pocket largely untouched (Figure S4). Therefore, extension of the thiol group in that direction should allow additional ligand‐protein interactions, leading to a further improved inhibitory potency. […]

LasB [6] = biological target: T1, LasB; settings: read-out: IC50 (known LasB inhibitors); Figure 1, known LasB inhibitors; cited from earlier work
in vitro [7] = settings: human
in vitro [8] = settings: human; remark: listed apart in the source
in vitro [9] = settings: human; remark: listed apart in the source
[10] = test system: human hepatoma cell line (HepG2); assay: Cytotoxicity assay, HepG2; settings: HepG2, at 100 µM
[11] = test system: human embryonic kidney (HEK) 293 cells; assay: Cytotoxicity assay, HEK 293; settings: HEK cells, at 100 µM

## O=C(Nc1ccc(Cl)c(Cl)c1)C(S)CC1CCCCC1 (stereo not shown) [7 b]
LasB [1]
  IC50: 12 ± 3 µM

## O=C(Nc1ccc(Cl)c(Cl)c1)C(S)CC1CC1 (stereo not shown) [7 c]
LasB [1]
  IC50: 6.3 ± 1.2 µM

## O=C(Nc1ccccc1)C(S)Cc1ccccc1 (stereo not shown) [7 d]
LasB [1]; versus compound 7 a
  fold improvement in IC50 value compared to 7 a: two‐fold
P. aeruginosa PA14
  MIC: > 100 µM
P. aeruginosa PA14; Pseudomonas aeruginosa
  MIC: > 100 µM
MMP-1
  inhibition of MMP-1: n.i. (n.i. = <10% inhibition)
MMP-2
  inhibition of MMP-2: n.i. (n.i. = <10% inhibition)
MMP-3
  inhibition of MMP-3: n.i. (n.i. = <10% inhibition)
MMP-7
  inhibition of MMP-7: n.i. (n.i. = <10% inhibition)
MMP-8
  inhibition of MMP-8: 26 ± 4%
MMP-14
  inhibition of MMP-14: n.i. (n.i. = <10% inhibition)
HDAC-3
  IC50: > 100 µM
HDAC-8
  IC50: > 100 µM
Cytotoxicity assay, A549
  IC50: > 100 µM
[2]
  IC50: > 100 µM
[3]
  IC50: > 100 µM

## Cc1ccccc1NC(=O)C(S)Cc1ccccc1 (stereo not shown) [7 e]
LasB [1]
  IC50: 2.4 ± 1 µM

## Cc1cccc(NC(=O)C(S)Cc2ccccc2)c1 (stereo not shown) [7 f]
LasB [1]
  IC50: 1 ± 0.4 µM

## Cc1ccc(NC(=O)C(S)Cc2ccccc2)cc1 (stereo not shown) [7 g]
LasB [1]
  IC50: 0.48 ± 0.04 µM
P. aeruginosa PA14; Pseudomonas aeruginosa
  MIC: > 100 µM
ADAM17; Table S2, read-out: IC50 ADAM17
  IC50: 4.8 ± 1.5 µM
[4]
  survival of larvae: up to 60%
  survival of larvae, compound in PBS: 100%
LasB [5]
  Ligand Efficiency (LE): 0.43
  Lipophilic Ligand Efficiency (LLE): 2.37
Cytotoxicity assay, A549
  IC50: > 100 µM
[2]
  IC50: > 100 µM
[3]
  IC50: > 100 µM

## CC(C)C[C@H](NP(=O)(O)O[C@@H]1O[C@@H](C)[C@H](O)[C@@H](O)[C@H]1O)C(=O)N[C@@H](Cc1c[nH]c2ccccc12)C(=O)O [Compound 1, phosphoramidon]
LasB [6]
  IC50: 0.207 µM

## O=C(CS)Nc1ccc(Cl)c(Cl)c1 [Compound 4, N‐(3,4‐dichlorophenyl) mercaptoacetamide]
P. aeruginosa PA14; Pseudomonas aeruginosa
  MIC: > 100 µM
MMP-1
  inhibition of MMP-1: n.i. (n.i. = <10% inhibition)
MMP-2
  inhibition of MMP-2: n.i. (n.i. = <10% inhibition)
MMP-3
  inhibition of MMP-3: n.i. (n.i. = <10% inhibition)
MMP-7
  inhibition of MMP-7: n.i. (n.i. = <10% inhibition)
MMP-8
  inhibition of MMP-8: n.i. (n.i. = <10% inhibition)
MMP-14
  inhibition of MMP-14: n.i. (n.i. = <10% inhibition)
ADAM17
  IC50: > 100 µM
HDAC-3
  IC50: > 100 µM
HDAC-8
  IC50: > 100 µM
[4]
  survival of larvae: virtually no improvement in survival
  survival of larvae, compound in PBS: 100%
In vitro [7]
  IC50: > 100 µM
In vitro [8]
  IC50: > 100 µM
In vitro [9]
  IC50: > 100 µM
[10]
  reduction in viability: 23±3%
[11]
  reduction in viability: 33±10%
